{"source": "patent US20260130933A1", "about": "“PHARMACEUTICAL COMPOSITION FOR PREVENTION OR TREATMENT OF NEPHROPATHY AND/OR DIABETES MELLITUS, COMPRISING ENAVOGLIFLOZIN” (DAEWOONG PHARMACEUTICAL CO., LTD., priority 2022, published 2026)", "experiment": "Example 3: phase 3 trial, enavogliflozin 0.3 mg vs dapagliflozin 10 mg once a day for 24 weeks added to metformin and gemigliptin in patients with type 2 diabetes (same endpoints, rescue drug)", "assay_type": "in vivo, human", "settings": "week 18", "description": "1) when Metformin (≥1,000 mg/Day) was Administered at a Constant Dose for at Least 8 Weeks Prior to Pre-Visit (Pre-Screening) • Metformin (≥1,000 mg/day) and gemigliptin (50 mg/day) were co-administered during the 8-week stabilization period. […] 4) when Metformin (≥1,000 mg/Day) and Gemigliptin (50 mg/Day) were Co-Administered at Constant Doses for at Least 8 Weeks Prior to Pre-Visit (Prescreening) • Without a separate stabilization period, Pre-visit (pre-screening) was Visit 1 (screening).\nSubjects who met the inclusion/exclusion criteria continued to receive metformin and gemigliptin while receiving a placebo of the clinical trial drug in a single-blind (subject-blinded) state for a 2-week run-in period.\nHere, the randomized subjects were stratified according to the administration therapy (co-administration with two or less agents (one or two agents) or three or more agents) of a conventional hypoglycemic agent (before washout of another hypoglycemic agent) within 24 weeks prior to obtaining written informed consent and by an HbA1c value (<8% or ≥8%) at Visit 1 (screening) measured in the central laboratory.\nThe randomized subjects were administered two tablets of the clinical trial drug corresponding to each administration group once a day, and then visited the institution at weeks 6, 12, 18, and 24 during the 24-week administration period to conduct efficacy and safety assessments. In addition, during the clinical trial period, they were instructed to exercise regularly and control their diet without changing their daily life patterns.\n• 1) Change in HbA1c at week 24 after administration of clinical trial drug compared to Visit 2 (randomization)\n• 1) Change in HbA1c at each time point of weeks 6, 12, and 18 after administration of clinical trial drug compared to Visit 2 (randomization) • 2) Change in FPG at each time point of weeks 6, 12, 18, and 24 after administration of clinical trial drug compared to Visit 2 (randomization) • 3) Proportion of subjects achieving HbA1c<7% at each time point of weeks 6, 12, 18, and 24 after administration of clinical trial drug • 4) Proportion of subjects achieving HbA1c<6.5% at each time point of weeks 6, 12, 18, and 24 after administration of clinical trial drug • 5) Proportion of subjects achieving therapeutic response (HbA1c change (HbA1c at Visit 2—HbA1c at each evaluation time point)>0.5% or HbA1c<7% at each evaluation time point compared to Visit 2 (randomization)) at each time point of weeks 6, 12, 18, and 24 after administration of clinical trial drug • 6) Proportion of subjects achieving therapeutic response (HbA1c change (HbA1c at Visit 2—HbA1c at each evaluation time point)>0.7% or HbA1c<7% at each evaluation time point compared to Visit 2 (randomization)) at each time point of weeks 6, 12, 18, and 24 after administration of clinical trial drug • 7) Proportion of subjects achieving therapeutic response (HbA1c change (HbA1c at Visit 2—HbA1c at each evaluation time point)>1% or HbA1c<7% at each evaluation time point compared to Visit 2 (randomization)) at each time point of weeks 6, 12, 18, and 24 after administration of clinical trial drug", "key": {"[1]": {"settings": "modified per-protocol set 2, enavogliflozin 0.3 mg, dapagliflozin 10 mg"}, "[2]": {"settings": "per-protocol set, enavogliflozin 0.3 mg vs dapagliflozin 10 mg"}, "[3]": {"settings": "per-protocol set, enavogliflozin 0.3 mg, dapagliflozin 10 mg"}}, "data": [{"molecule": "OC[C@H]1O[C@@H](c2cc(Cc3ccc(C4CC4)cc3)c(Cl)c3c2CCO3)[C@H](O)[C@@H](O)[C@@H]1O", "note": "[Enavogliflozin, (2S,3R,4R,5S,6R)-2-(7-chloro-6 (4-cyclopropylbenzyl)-2,3-dihydrobenzofuran-4-yl)-6-(hydroxymethyl)tetrahydro-2H-pyran-3,4,5-triol]", "values": [{"measurement": "Change from baseline in diastolic blood pressure, Median", "setting": "modified per-protocol set 2", "value": "−5.00", "unit": "mmHg"}, {"measurement": "Diastolic blood pressure, Mean", "setting": "modified per-protocol set 2", "value": 72.53, "unit": "mmHg"}, {"measurement": "Diastolic blood pressure, Median", "setting": "modified per-protocol set 2", "value": 72.00, "unit": "mmHg"}, {"measurement": "Change from baseline in systolic blood pressure, ANCOVA LS mean difference", "setting": "modified per-protocol set 2, enavogliflozin 0.3 mg vs dapagliflozin 10 mg", "value": "−1.66", "unit": "mmHg"}, {"measurement": "Change from baseline in systolic blood pressure, ANCOVA LS mean", "setting": "[1]", "value": "−6.82", "unit": "mmHg"}, {"measurement": "Change from baseline in systolic blood pressure, Mean", "setting": "[1]", "value": "−7.37", "unit": "mmHg"}, {"measurement": "Change from baseline in systolic blood pressure, Median", "setting": "[1]", "value": "−7.00", "unit": "mmHg"}, {"measurement": "Systolic blood pressure, Mean", "setting": "[1]", "value": 119.95, "unit": "mmHg"}, {"measurement": "Systolic blood pressure, Median", "setting": "[1]", "value": 119.00, "unit": "mmHg"}, {"measurement": "Adiponectin, Mean", "setting": "per-protocol set", "value": 7.03, "unit": "µg/mL"}, {"measurement": "Adiponectin, Median", "setting": "per-protocol set", "value": 6.26, "unit": "µg/mL"}, {"measurement": "Change from baseline in HOMA-IR, ANCOVA LS mean", "setting": "per-protocol set", "value": "−1.14"}, {"measurement": "Change from baseline in HOMA-IR, LS mean difference (enavogliflozin − dapagliflozin)", "setting": "per-protocol set", "value": "−0.13"}, {"measurement": "Change from baseline in HOMA-IR, Mean", "setting": "per-protocol set", "value": "−1.16"}, {"measurement": "Change from baseline in HOMA-IR, Median", "setting": "per-protocol set", "value": "−0.82"}, {"measurement": "Change from baseline in HOMA-β, ANCOVA LS mean", "setting": "per-protocol set", "value": 5.97}, {"measurement": "Change from baseline in HOMA-β, LS mean difference (enavogliflozin − dapagliflozin)", "setting": "per-protocol set", "value": 1.48}, {"measurement": "Change from baseline in HOMA-β, Mean", "setting": "per-protocol set", "value": 6.09}, {"measurement": "Change from baseline in HOMA-β, Median", "setting": "per-protocol set", "value": 4.10}, {"measurement": "Change from baseline in UACR, ANCOVA LS mean", "setting": "per-protocol set", "value": -11.08, "unit": "g/kg"}, {"measurement": "Change from baseline in UACR, LS mean difference (enavogliflozin − dapagliflozin)", "setting": "per-protocol set", "value": -2.18, "unit": "g/kg"}, {"measurement": "Change from baseline in UACR, Mean", "setting": "per-protocol set", "value": -12.07, "unit": "g/kg"}, {"measurement": "Change from baseline in UACR, Median", "setting": "per-protocol set", "value": -1.50, "unit": "g/kg"}, {"measurement": "Change from baseline in UGCR, ANCOVA LS mean", "setting": "per-protocol set", "value": 58.74, "unit": "mg/mg"}, {"measurement": "Change from baseline in UGCR, LS mean difference (enavogliflozin − dapagliflozin)", "setting": "per-protocol set", "value": 13.34, "unit": "mg/mg"}, {"measurement": "Change from baseline in UGCR, Mean", "setting": "per-protocol set", "value": 57.23, "unit": "mg/mg"}, {"measurement": "Change from baseline in UGCR, Median", "setting": "per-protocol set", "value": 54.56, "unit": "mg/mg"}, {"measurement": "Change from baseline in adiponectin, ANCOVA LS mean", "setting": "per-protocol set", "value": 0.78, "unit": "µg/mL"}, {"measurement": "Change from baseline in adiponectin, LS mean difference (enavogliflozin − dapagliflozin)", "setting": "per-protocol set", "value": 0.42, "unit": "µg/mL"}, {"measurement": "Change from baseline in adiponectin, Mean", "setting": "per-protocol set", "value": 0.80, "unit": "µg/mL"}, {"measurement": "Change from baseline in adiponectin, Median", "setting": "per-protocol set", "value": 0.60, "unit": "µg/mL"}, {"measurement": "Change from baseline in leptin, ANCOVA LS mean", "setting": "per-protocol set", "value": -1.46, "unit": "ng/mL"}, {"measurement": "Change from baseline in leptin, LS mean difference (enavogliflozin − dapagliflozin)", "setting": "per-protocol set", "value": -0.40, "unit": "ng/mL"}, {"measurement": "Change from baseline in leptin, Mean", "setting": "per-protocol set", "value": -1.63, "unit": "ng/mL"}, {"measurement": "Change from baseline in leptin, Median", "setting": "per-protocol set", "value": -0.89, "unit": "ng/mL"}, {"measurement": "HOMA-IR (insulin resistance), Mean", "setting": "per-protocol set", "value": 1.74}, {"measurement": "HOMA-IR (insulin resistance), Median", "setting": "per-protocol set", "value": 1.42}, {"measurement": "HOMA-β (beta-cell function), Mean", "setting": "per-protocol set", "value": 49.26}, {"measurement": "HOMA-β (beta-cell function), Median", "setting": "per-protocol set", "value": 40.00}, {"measurement": "Leptin, Mean", "setting": "per-protocol set", "value": 8.87, "unit": "ng/mL"}, {"measurement": "Leptin, Median", "setting": "per-protocol set", "value": 5.86, "unit": "ng/mL"}, {"measurement": "UACR, Mean", "setting": "per-protocol set", "value": 25.02, "unit": "g/kg"}, {"measurement": "UACR, Median", "setting": "per-protocol set", "value": 11.30, "unit": "g/kg"}, {"measurement": "UGCR, Mean", "setting": "per-protocol set", "value": 57.96, "unit": "mg/mg"}, {"measurement": "UGCR, Median", "setting": "per-protocol set", "value": 54.71, "unit": "mg/mg"}, {"measurement": "Achieving HbA1c target of <6.5%, odds ratio (logistic regression model)", "setting": "[2]", "value": 1.20}, {"measurement": "Achieving HbA1c target of <7%, odds ratio (logistic regression model)", "setting": "[2]", "value": 1.36}, {"measurement": "Change from baseline in FPG, ANCOVA LS mean difference", "setting": "[2]", "value": -4.22, "unit": "mg/dL"}, {"measurement": "Change from baseline in HbA1c, ANCOVA LS mean difference", "setting": "[2]", "value": "−0.07", "unit": "% p"}, {"measurement": "Change from baseline in body weight, ANCOVA LS mean difference", "setting": "[2]", "value": -0.15, "unit": "kg"}, {"measurement": "Change from baseline in fasting C-peptide, ANCOVA LS mean difference", "setting": "[2]", "value": -0.02, "unit": "ng/mL"}, {"measurement": "Therapeutic glycemic response 1, odds ratio (logistic regression model)", "setting": "[2]", "value": 1.02}, {"measurement": "Therapeutic glycemic response 2, odds ratio (logistic regression model)", "setting": "[2]", "value": 1.09}, {"measurement": "Therapeutic glycemic response 3, odds ratio (logistic regression model)", "setting": "[2]", "value": 1.22}, {"measurement": "Body weight, Mean", "setting": "[3]", "value": 66.18, "unit": "kg"}, {"measurement": "Change from baseline in FPG, ANCOVA LS mean", "setting": "[3]", "value": -27.77, "unit": "mg/dL"}, {"measurement": "Change from baseline in FPG, Mean", "setting": "[3]", "value": -28.00, "unit": "mg/dL"}, {"measurement": "Change from baseline in FPG, Median", "setting": "[3]", "value": -24.00, "unit": "mg/dL"}, {"measurement": "Change from baseline in HbA1c, ANCOVA LS mean", "setting": "[3]", "value": "−0.83", "unit": "% p"}, {"measurement": "Change from baseline in HbA1c, Mean", "setting": "[3]", "value": "−0.84", "unit": "% p"}, {"measurement": "Change from baseline in HbA1c, Median", "setting": "[3]", "value": "−0.72", "unit": "% p"}, {"measurement": "Change from baseline in body weight, ANCOVA LS mean", "setting": "[3]", "value": -3.16, "unit": "kg"}, {"measurement": "Change from baseline in body weight, Mean", "setting": "[3]", "value": -3.10, "unit": "kg"}, {"measurement": "Change from baseline in body weight, Median", "setting": "[3]", "value": -2.90, "unit": "kg"}, {"measurement": "Change from baseline in fasting C-peptide, ANCOVA LS mean", "setting": "[3]", "value": -0.08, "unit": "ng/mL"}, {"measurement": "Change from baseline in fasting C-peptide, Mean", "setting": "[3]", "value": -0.09, "unit": "ng/mL"}, {"measurement": "Change from baseline in fasting C-peptide, Median", "setting": "[3]", "value": -0.10, "unit": "ng/mL"}, {"measurement": "FPG, Mean", "setting": "[3]", "value": 111.10, "unit": "mg/dL"}, {"measurement": "FPG, Median", "setting": "[3]", "value": 109.00, "unit": "mg/dL"}, {"measurement": "Fasting C-peptide, Mean", "setting": "[3]", "value": 0.64, "unit": "ng/mL"}, {"measurement": "Fasting C-peptide, Median", "setting": "[3]", "value": 0.60, "unit": "ng/mL"}, {"measurement": "HbA1c, Mean", "setting": "[3]", "value": 6.95, "unit": "%"}]}]}
